Assay results as given in US20250145633A1, “SUBSTITUTED FURANOPYRIMIDINE COMPOUNDS AS PDE1 INHIBITORS” (Dart NeuroScience, LLC, priority 2017, published 2025).

Each compound was assayed against human PDE1B enzyme (Homo sapiens (Human), UniProt Q01064) (assay: IMAP TR-FRET PDE1B enzymatic assay). Settings: negative log of half-maximal molar inhibitory concentration; 200 nM FAM-cAMP; values given as bins.
Type: biochemical
How it was run: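 Full-length GST-tagged human PDE1B (250 pg/well) in IMAP BSA buffer with 10 U/ml calmodulin and 2.5 mM CaCl2; compound pre-incubated 5 min at room temperature, then 200 nM (final) FAM-cAMP for 30 min. IMAP binding reagent/Tb added, 1 h; TR-FRET 520/490 ratio read. IC50 from sigmoidal dose-response fit.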
With Cc1oc2ncnc(NC3(C)CC3)c2c1C(=O)NCc1cnn(-c2cccc(F)c2)c1 [Example 572, N-{[1-(3-Fluorophenyl)-1H-pyrazol-4-yl]methyl}-6-methyl-4-[(1-methylcyclopropyl)amino]furo[2,3-d]pyrimidine-5-carboxamide] the “PDE1b (pIC50)” value was greater than 8.
With Cc1oc2ncnc(NC3(C)CC3)c2c1C(=O)N1CCC(Oc2cccc(F)c2)C1 (stereo not shown) [Example 398, 5-[3-(3-Fluorophenoxy)pyrrolidine-1-carbonyl]-6-methyl-N-(1-methylcyclopropyl)furo[2,3-d]pyrimidin-4-amine] the “PDE1b (pIC50)” value was greater than 8.
Cc1nsc(NC(=O)c2c(C)oc3ncnc(NC4(C)CC4)c23)n1 [Example 454, 6-Methyl-N-(3-methyl-1,2,4-thiadiazol-5-yl)-4-[(1-methylcyclopropyl)amino]furo[2,3-d]pyrimidine-5-carboxamide] was tested, and the “PDE1b (pIC50)” value was greater than 8.
With Cc1oc2ncnc(NC3(C)CC3)c2c1C(=O)NC1(C2CCC2)CC1 [Example 150, N-(1-Cyclobutylcyclopropyl)-6-methyl-4-[(1-methylcyclopropyl)amino]furo[2,3-d]pyrimidine-5-carboxamide] the “PDE1b (pIC50)” value was greater than 8.

Same assay, conditions: negative log of half-maximal molar inhibitory concentration; 200 nM FAM-cAMP; values given as bins; read-out: PDE1b (pIC50) (converted)
With Cc1cccc(CNC(=O)c2c(C)oc3ncnc(NC4(C)CC4)c23)c1 [Example 198, 6-Methyl-4-[(1-methylcyclopropyl)amino]-N-[(3-methylphenyl)methyl]furo[2,3-d]pyrimidine-5-carboxamide] the IC50 was 10 to 100 nM.
COc1nc(C(C)C)nc2c1CN(C(=O)c1c(C)oc3ncnc(NC4(C)CC4)c13)C2 [Example 688, 5-[4-Methoxy-2-(propan-2-yl)-5H,6H,7H-pyrrolo[3,4-d]pyrimidine-6-carbonyl]-6-methyl-N-(1-methylcyclopropyl)furo[2,3-d]pyrimidin-4-amine] showed an IC50 of 10 to 100 nM.
For Cc1oc2ncnc(NC3(C)CC3)c2c1C(=O)n1cc(C(C)C)cn1 [Example 404, 6-Methyl-N-(1-methylcyclopropyl)-5-[4-(propan-2-yl)-1H-pyrazole-1-carbonyl]furo[2,3-d]pyrimidin-4-amine], the IC50 was 10 to 100 nM.
Cc1oc2ncnc(NC3(C)CC3)c2c1C(=O)N1CCc2ccc(OCF)cc2C1 [Example 767, 5-[7-(Fluoromethoxy)-1,2,3,4-tetrahydroisoquinoline-2-carbonyl]-6-methyl-N-(1-methylcyclopropyl)furo[2,3-d]pyrimidin-4-amine] gave an IC50 of 10 to 100 nM.
Cc1nc(NC(=O)c2c(C)oc3ncnc(NC4(C)CC4)c23)cs1 [Example 453, 6-Methyl-N-(2-methyl-1,3-thiazol-4-yl)-4-[(1-methylcyclopropyl)amino]furo[2,3-d]pyrimidine-5-carboxamide] gave an IC50 of 10 to 100 nM.
Cc1oc2ncnc(NC3(C)CC3)c2c1C(=O)Nc1ccc(N2CCOCC2)nc1 [Example 753, 6-Methyl-4-[(1-methylcyclopropyl)amino]-N-[6-(morpholin-4-yl)pyridin-3-yl]furo[2,3-d]pyrimidine-5-carboxamide] was tested, and the IC50 was 100 to 1000 nM.
For Cc1oc2ncnc(NC3(C)CC3)c2c1C(=O)N1CCC(c2cnn(C)c2)CC1 [Example 782, 6-Methyl-5-[4-(1-methyl-1H-pyrazol-4-yl)piperidine-1-carbonyl]-N-(1-methylcyclopropyl)furo[2,3-d]pyrimidin-4-amine], the IC50 was 10 to 100 nM.
In the case of Cc1oc2ncnc(NC3(C)CC3)c2c1C(=O)NCc1ncn(C)n1 [Example 741, 6-Methyl-N-[(1-methyl-1H-1,2,4-triazol-3-yl)methyl]-4-[(1-methylcyclopropyl)amino]furo[2,3-d]pyrimidine-5-carboxamide], the IC50 was 10 to 100 nM.
COc1nc(C)nc2c1CN(C(=O)c1c(C)oc3ncnc(NC4(C)CC4)c13)C2 [Example 709, 5-{4-Methoxy-2-methyl-5H,6H,7H-pyrrolo[3,4-d]pyrimidine-6-carbonyl}-6-methyl-N-(1-methylcyclopropyl)furo[2,3-d]pyrimidin-4-amine] gave an IC50 of 100 to 1000 nM.
Compound Cc1oc2ncnc(NC3(C)CC3)c2c1C(=O)NCc1ncc(C(C)C)o1 [Example 664, 6-Methyl-4-[(1-methylcyclopropyl)amino]-N-{[5-(propan-2-yl)-1,3-oxazol-2-yl]methyl}furo[2,3-d]pyrimidine-5-carboxamide] has an IC50 of 10 to 100 nM.
Cc1oc2ncnc(NC3(C)CC3)c2c1C(=O)N(C)Cc1ccccc1F [Example 249, N-[(2-Fluorophenyl)methyl]-N,6-dimethyl-4-[(1-methylcyclopropyl)amino]furo[2,3-d]pyrimidine-5-carboxamide] was tested, and the IC50 was 10 to 100 nM.
Work on COc1ccc(CN(CCCO)C(=O)c2c(C)oc3ncnc(NC4(C)CC4)c23)cc1 [Example 573, N-(3-Hydroxypropyl)-N-[(4-methoxyphenyl)methyl]-6-methyl-4-[(1-methylcyclopropyl)amino]furo[2,3-d]pyrimidine-5-carboxamide] yielded an IC50 of 10 to 100 nM.
Cc1cc(C(C)NC(=O)c2c(C)oc3ncnc(NC4(C)CC4)c23)no1 (stereo not shown) [Example 350, 6-Methyl-N-[1-(5-methyl-1,2-oxazol-3-yl)ethyl]-4-[(1-methylcyclopropyl)amino]furo[2,3-d]pyrimidine-5-carboxamide] showed an IC50 of 10 to 100 nM.
Compound Cc1oc2ncnc(NC3(C)CC3)c2c1C(=O)N1CCC(c2ncc(OCF)cn2)CC1 [Example 770, 5-{4-[5-(Fluoromethoxy)pyrimidin-2-yl]piperidine-1-carbonyl}-6-methyl-N-(1-methylcyclopropyl)furo[2,3-d]pyrimidin-4-amine] has an IC50 of 10 to 100 nM.
Work on COc1ncc(C2CCN(C(=O)c3c(C)oc4ncnc(NC5(C)CC5)c34)CC2)cn1 [Example 394, 5-[4-(2-Methoxypyrimidin-5-yl)piperidine-1-carbonyl]-6-methyl-N-(1-methylcyclopropyl)furo[2,3-d]pyrimidin-4-amine] yielded an IC50 of 10 to 100 nM.
For Cc1oc2ncnc(NC3(C)CC3)c2c1C(=O)N[C@H]1[C@@H]2COC[C@@H]21 [Example 114, 6-Methyl-4-[(1-methylcyclopropyl)amino]-N-[(1R,5S,6R)-3-oxabicyclo[3.1.0]hexan-6-yl]furo[2,3-d]pyrimidine-5-carboxamide], the IC50 was 10 to 100 nM.
With Cc1oc2ncnc(NC3(C)CC3)c2c1C(=O)N(C)CCc1nc2cc(F)ccc2[nH]1 [Example 583, N-[2-(5-Fluoro-1H-1,3-benzodiazol-2-yl)ethyl]-N,6-dimethyl-4-[(1-methylcyclopropyl)amino]furo[2,3-d]pyrimidine-5-carboxamide] the IC50 was 100 to 1000 nM.
Cc1oc2ncnc(NC3(C)CC3)c2c1C(=O)Nc1ccc2scnc2c1 [Example 263, N-(1,3-Benzothiazol-5-yl)-6-methyl-4-[(1-methylcyclopropyl)amino]furo[2,3-d]pyrimidine-5-carboxamide] gave an IC50 of 10 to 100 nM.
With Cc1oc2ncnc(NC3(C)CC3)c2c1C(=O)N1CCc2c(ncnc2OC2CC2)C1 [Example 811, 5-{4-Cyclopropoxy-5H,6H,7H,8H-pyrido[3,4-d]pyrimidine-7-carbonyl}-6-methyl-N-(1-methylcyclopropyl)furo[2,3-d]pyrimidin-4-amine] the IC50 was 10 to 100 nM.
For Cc1oc2ncnc(NC3(C)CC3)c2c1C(=O)NC1(c2ccc(F)cn2)CC1 [Example 281, N-[1-(5-Fluoropyridin-2-yl)cyclopropyl]-6-methyl-4-[(1-methylcyclopropyl)amino]furo[2,3-d]pyrimidine-5-carboxamide], the IC50 was 10 to 100 nM.
Cc1oc2ncnc(NC3(C)CC3)c2c1C(=O)Nc1ccc(N2CCOCC2)nn1 [Example 656, 6-Methyl-4-[(1-methylcyclopropyl)amino]-N-[6-(morpholin-4-yl)pyridazin-3-yl]furo[2,3-d]pyrimidine-5-carboxamide] showed an IC50 of 100 to 1000 nM.
